Measured values from patent US20250318998A1, “REMINERALIZING RESTORATIVE COMPOSITIONS AND METHODS THEREOF” (ADA FORSYTH INSTITUTE, INC., priority 2023, published 2025).
Residues, ends and D or L forms follow the SMILES beside them.

Experiment: Water solubility (statement)
Type: physicochemical

- water solubility: water soluble
SMILES: N[C@@H](CC(=O)O)C(=O)N[C@@H](CO)C(=O)N[C@@H](CO)C(=O)N[C@@H](CC(=O)O)C(=O)N[C@@H](CO)C(=O)N[C@@H](CO)C(=O)N[C@@H](CC(=O)O)C(=O)N[C@@H](CO)C(=O)N[C@@H](CO)C(=O)N[C@@H](CC(=O)O)C(=O)N[C@@H](CO)C(=O)N[C@@H](CO)C(=O)N[C@@H](CC(=O)O)C(=O)N[C@@H](CO)C(=O)N[C@@H](CO)C(=O)N[C@@H](CC(=O)O)C(=O)N[C@@H](CO)C(=O)N[C@@H](CO)C(=O)N[C@@H](CC(=O)O)C(=O)N[C@@H](CO)C(=O)N[C@@H](CO)C(=O)N[C@@H](CC(=O)O)C(=O)N[C@@H](CO)C(=O)N[C@@H](CO)C(=O)O [8DSS] (H-DSSDSSDSSDSSDSSDSSDSSDSS-OH; N-terminus and C-terminus assumed)
